This note sets out measurements from patent publication US11465982B2, “Pyridazines” (Boehringer Ingelheim International GmbH, priority 2019, dated 2022).

In one experiment the target is ATX in human whole blood (Homo sapiens (Human), UniProt Q13822). The experiment in a line: Assay B: Whole-Blood ATX Assay. Format: biochemical. The conditions noted are these: 1 h at 37° C., formation of 18:2 LPA.
The target in another experiment is Human ATX (Homo sapiens (Human), UniProt Q13822). The experiment in a line: Assay A: Biochemical ATX Assay. The note with it: 5 nM recombinant ATX, 18:1 LPC substrate, 2-h incubation at room temperature, formation of 18:1 LPA.
In another experiment the test system is plasma LPA. Briefly: Assay C: In Vivo (plasma LPA reduction after oral application to rats). On the set-up: species or system rat. The conditions noted are these: 5 mg/kg, plasma 8 hours post application, vs baseline, sum of LPA 16:0, 18:0, 18:1, 18:2, 20:4. The method, then:
The test substance was solubilized in 0.5% natrosol supplemented with 0.015% Tween 80 for oral application to rats at a dose of 5 mg/kg. Blood samples were collected before compound administration and 8 hours post application on ice using EDTA as coagulation agent. Subsequently, plasma was prepared by centrifugation and stored until analysis at −20° C.
LPAs from plasma samples were extracted by using the procedure described by Scherer et al. (Clinical chemistry 2009, 55, 1218-22). 35 μL of heparinized plasma was mixed with 200 μL 40 mM disodium hydrogen phosphate buffer containing 30 mM citric acid (pH 4) and 1 μM 17:0 LPA (internal standard). Subsequently, 500 μL butanol was added and shaken vigorously for 10 min. Samples were centrifuged afterwards at 4000 rpm, 4° C., for 10 min. 500 μL of the organic upper phase was transferred to a fresh 96-deep-well plate and evaporated with a gentle nitrogen flow of 15 psi for 45 min. The resultant residual was dissolved in 100 μL ethanol prior to LC-MS analysis.
LC-MS Method for the Analytic of In Vivo Samples
A Triple Quad 6500 (ABSciex, Toronto, Canada) was equipped with an Agilent 1290 LC system (Agilent, Santa Clara, Calif.) a CTC autosampler and an Atlantis 50×2.1-mm, 3-μm HILIC LC column (Waters, Elstree, UK). Eluent A contained 0.2% formic acid and 50 mM ammonium formate in water, whereas eluent B consisted of 0.2% formic acid in acetonitrile. […] At 1.8 min, solvent B was set back to 95% and stayed constant for 0.7 min for re-equilibration of the column. The following LPA species were monitored (DP: declustering potential and CE: collision energy): 16:0 LPA at 409.2/152.8, DP=−150, CE=−28; 18:0 LPA at 437.3/152.8, DP=−60, CE=−28; 18:1 LPA at 435.2/152.8, DP=−40, CE=−28; 18:2 LPA at 433.2/152.8, DP=−150, CE=−28; 20:4 LPA at 457.2/152.8, DP=−100, CE=−29 and 17:0 LPA at 423.5/152.8, DP=−100, CE=−36. LPA depletion in percent was calculated based on the baseline LPA levels before test compound application. The sum of LPA refers to the species 16:0; 18:0; 18:1; 18:2 and 20:4

pIC50: −log10 of the molar value.

Experimental for ATX in human whole blood: 45 μL human whole-blood was supplemented with 5 μL of the test compound, dissolved in phosphate-buffered saline (concentration range 0.12 nM-100 μM). This mixture was incubated for 1 h at 37° C. and stopped by addition of 100 μL 40 mM disodium hydrogen phosphate buffer containing 30 mM citric acid (pH 4) and 1 μM 17:0 LPA (internal standard). LPA was extracted by addition of 500 μL 1-butanol, followed by 10-min centrifugation at 4000 rpm, 4° C. Prom the resultant organic supernatant, a 200 μL aliquot was transferred into a 96-deep-well plate and transferred to the RapidPire-based MS/MS measurement.
The RapidPire autosampler was coupled to a binary pump (Agilent 1290) and a Triple Quad 6500 (ABSciex, Toronto, Canada). This system was equipped with a 10-μL loop, 5-μL Waters Atlantis HILIC cartridge (Waters, Elstree, UK), 90% acetonitrile containing 10 mM ammonium acetate as eluent A and 40% acetonitrile containing 10 mM ammoniumacetate as eluent B. For details see (Bretschneider et al., SLAS Discovery, 2017, 22, 425-432). The MS was operated in negative mode with a source temperature of 550° C., curtain gas=35, gas 1=65, and gas 2=80. The following transitions and MS parameters (DP: declustering potential and CE: collision energy) for the respective LPAs were determined: 18:2 LPA at 433.2/152.8, DP=−150, CE=−27 and 17:0 LPA at 423.5/152.8, DP=−100.
The formation of 18:2 LPA was monitored and evaluated as ratio to 17:0 LPA.
Experimental for Human ATX: 5 nM recombinant ATX (Cayman Chemicals) was supplemented to 50 mM Tris buffer (pH 8.0) containing 3 mM KCl, 1 mM CaCl2, 1 mM MgCl2 0.14 mM NaCl, and 0.1% bovine serum albumin. Test compounds were dissolved in DMSO and tested in the range of 0.1 nM to 10 μM. The enzymatic reaction (22.5 μL) was started by addition of 2.5 μL 10 μM 18:1 LPC (Avanti Lipids, Alabaster, Ala., USA). After 2-h incubation at room temperature, the reaction was stopped by addition of 20 μL water containing 500 nM 20:4 LPA as internal standard and 100 μL 1-butanol for extracting LPA. Subsequently, the plates were centrifuged at 4000 rpm, 4° C., for 2 min. The resultant upper butanol phase was directly used for injection at a RapidFire system (Agilent).
The RapidFire autosampler was coupled to a binary pump (Agilent 1290) and a Triple Quad 6500 (ABSciex, Toronto, Canada). This system was equipped with a 10-μL loop, 5-μL Waters Atlantis HILIC cartridge (Waters, Elstree, UK), 90% acetonitrile containing 10 mM ammonium acetate as eluent A and 40% acetonitrile containing 10 mM ammoniumacetate as eluent B. For details see (Bretschneider et al., SLAS Discovery, 2017). 1 The MS was operated in negative mode with a source temperature of 550° C., curtain gas=35, gas 1=65, and gas 2=80. The following transitions and MS parameters (DP: declustering potential and CE: collision energy) for the respective LPAs were determined: 18:1 LPA at 435.2/152.8, DP=−40, CE=−28 and 20:4 LPA at 457.2/152.8, DP=−100, CE=−27).
The formation of 18:1 LPA was monitored and evaluated as ratio to 20:4 LPA.

The term pIC50 denotes the negative decadic logarithm of the IC50, by convention in mol/L. With `CC(=O)N1CCC2(CC1)CN(c1ccc(CNC(=O)C3(c4ccc(OCc5ccc(C(F)(F)F)nc5)nn4)CC3)cc1)C2` [Example 1.1, N-(4-(7-acetyl-2,7-diazaspiro[3.5]nonan-2-yl)benzyl)-1-(6-((6-(trifluoromethyl)pyridin-3-yl)methoxy)pyridazin-3-yl)cyclopropane-1-carboxamide], the pIC50 against ATX in human whole blood is 8.51; on Human ATX, 8.40. Also, the “LPA reduction at 8 h” value with plasma LPA worked out at 93.7%.
On the same counts, the results for `CN1CC2(CC1=O)CN(c1ccc(CNC(=O)C3(c4ccc(OCc5ccc(C(F)F)nc5)nn4)CC3)cc1)C2` [Example 1.2] are 8.62, 8.46 and 90.6%.
For the compound `CC(=O)N1CCC2(CC1)CN(c1ccc(CNC(=O)C3(c4ccc(OCc5ccc(C(F)F)nc5)nn4)CC3)cc1)C2` [Example 1.3], the values for the pIC50 on ATX in human whole blood and on Human ATX were 8.55 and 8.43, respectively. Also, the “LPA reduction at 8 h” value in the experiment with plasma LPA was found to be 95.0%.
On the same counts, the results for `CC(=O)N1CC2(C1)CN(c1ccc(CNC(=O)C3(c4ccc(OCc5ccc(C(F)F)nc5)nn4)CC3)cc1)C2` [Example 1.4] are 8.51, 8.40 and 98.2%.
On to `CC(=O)N1CCN(c2ccc(CNC(=O)C3(c4ccc(OCc5ccc(C(F)(F)F)nc5)nn4)CC3)c(F)c2)CC1` [Example 1.5], for which the figures for the pIC50 against ATX in human whole blood and at Human ATX were 8.38 and 8.42, respectively.
Taken in the same sequence, the figures for `CC(=O)N1CCN(c2ccc(CNC(=O)C3(c4ccc(OCc5ccc(C(F)(F)F)nc5)nn4)CC3)cc2F)CC1` [Example 1.6] were 8.33 and 8.62.
`CN1CC2(CC1=O)CN(c1ccc(CNC(=O)C3(c4ccc(OCc5ccc(C(F)(F)F)nc5)nn4)CC3)cc1)C2` [Example 1.7]: the results for the pIC50 against ATX in human whole blood and on Human ATX were 8.24 and 8.05, respectively.
Take `CC(=O)N1CC2(CCN(c3ccc(CNC(=O)C4(c5ccc(OCc6ccc(C(F)F)nc6)nn5)CC4)cc3)C2)C1` [Example 1.8]: the pIC50 was 8.14 on ATX in human whole blood and 8.39 at Human ATX. In addition, the “LPA reduction at 8 h” value in the experiment on plasma LPA worked out at 78.2%.
For the compound `CN1C(=O)NCC12CCN(c1ccc(CNC(=O)C3(c4ccc(OCc5ccc(C(F)F)nc5)nn4)CC3)cc1)CC2` [Example 1.9], the pIC50 was 8.03 against ATX in human whole blood and 8.35 at Human ATX.
Take `O=C1CCCN1C1CCN(c2ccc(CNC(=O)C3(c4ccc(OCc5ccc(C(F)(F)F)nc5)nn4)CC3)cc2)CC1` [Example 1.10]: the pIC50 at ATX in human whole blood was 8.15; at Human ATX, 8.62.
On the same counts, the results for `CC(=O)N1CCC12CN(c1ccc(CNC(=O)C3(c4ccc(OCc5ccc(C(F)(F)F)nc5)nn4)CC3)cc1)C2` [Example 1.11] are 8.00 and 8.59.
Take `CC(=O)N1CCN(c2ccc(CNC(=O)C3(c4ccc(OCc5ccc(C(F)(F)F)nc5)nn4)CC3)cc2)CC1` [Example 1.12]: the results for the pIC50 on ATX in human whole blood and on Human ATX were 7.99 and 8.37, respectively. The “LPA reduction at 8 h” value in the experiment with plasma LPA is 83.9%.
In the case of `CN1C(=O)NCC12CCN(c1ccc(CNC(=O)C3(c4ccc(OCc5ccc(C(F)(F)F)nc5)nn4)CC3)cc1)CC2` [Example 1.13], the pIC50 is 7.98 against ATX in human whole blood and 8.55 on Human ATX.
Taken in the same sequence, the figures for `CC(=O)N1CCC2(C1)CN(c1ccc(CNC(=O)C3(c4ccc(OCc5ccc(C(F)(F)F)nc5)nn4)CC3)cc1)C2` [Example 1.14] were 7.95 and 8.31.
In the case of `CC(=O)N1CCN(c2ccc(CNC(=O)C3(c4ccc(OCc5ccc(C(F)(F)F)nc5)nn4)CC3)cc2C(F)(F)F)CC1` [Example 1.15], the figures for the pIC50 at ATX in human whole blood and at Human ATX were 7.93 and 8.70, respectively.
As for `CC(=O)N1CCN(c2ccc(CNC(=O)C3(c4ccc(OCc5ccc(C(F)F)nc5)nn4)CC3)cc2)CC1` [Example 1.16], the pIC50 is 8.27 at ATX in human whole blood and 8.47 on Human ATX. Moreover, the “LPA reduction at 8 h” value in the experiment on plasma LPA is on record as 95.5%.
On the same counts, the results for `CC(=O)N1CC2(C1)CN(c1ccc(CNC(=O)C3(c4ccc(OCc5ccc(C(F)(F)F)nc5)nn4)CC3)cc1)C2` [Example 1.17] are 8.19, 8.66 and 96.9%.
On to `CC(=O)N1CC2CC1CN2c1ccc(CNC(=O)C2(c3ccc(OCc4ccc(C(F)(F)F)nc4)nn3)CC2)cc1` (centres unmarked) [Example 1.18], for which the results for the pIC50 against ATX in human whole blood and on Human ATX were 7.97 and 8.49, respectively.
On the same counts, the results for `CC(=O)N1CCN(c2ccc(CNC(=O)C3(c4ccc(OCc5ccc(C(F)(F)F)nc5)nn4)CC3)cc2)CC1(C)C` [Example 1.19] are 8.08 and 8.66.
For the compound `CC(=O)N1CCN(c2ccc(CNC(=O)C3(c4ccc(OCc5ccc(C(F)(F)F)nc5)nn4)CC3)cc2)C(C)(C)C1` [Example 1.20], the pIC50 was 8.17 against ATX in human whole blood and 8.40 at Human ATX.
In the case of `CC(=O)N1CC2(C1)CN(c1ccc(CNC(=O)C3(c4ccc(OCc5ccc(C(F)(F)F)nc5)nn4)CC3)cc1F)C2` [Example 1.21], the pIC50 was 8.54 against ATX in human whole blood and 8.36 at Human ATX. Moreover, the “LPA reduction at 8 h” value in the experiment on plasma LPA is listed as 93.8%.
`CC(=O)N1CCN(c2ccc(CNC(=O)C3(c4ccc(OCc5ccc(C(F)F)nc5)nn4)CC3)c(C(F)(F)F)c2)CC1` [Example 1.22]: the pIC50 against ATX in human whole blood and at Human ATX was 8.60 each time.
For `CC(=O)N1CCN(c2ccc(CNC(=O)C3(c4ccc(OCc5ccc(C(F)(F)F)nc5)nn4)CC3)c(C(F)(F)F)c2)CC1` [Example 1.23], the results for the pIC50 against ATX in human whole blood and at Human ATX were 8.31 and 8.44, respectively.
On the same counts, the results for `CC(=O)N1C[C@@H]2CN(c3ccc(CNC(=O)C4(c5ccc(OCc6ccc(C(F)F)nc6)nn5)CC4)cc3)C[C@@H]2C1` [Example 1.24] are 8.34 and 8.42.
Take `CC(=O)N1C[C@@H]2CN(c3ccc(CNC(=O)C4(c5ccc(OCc6ccc(C(F)(F)F)nc6)nn5)CC4)cc3)C[C@@H]2C1` [Example 1.25]: the values for the pIC50 against ATX in human whole blood and at Human ATX were 7.91 and 8.49, respectively.
With `CC(=O)N1CC2(C1)CN(c1ccc(CNC(=O)C3(c4ccc(OCc5ccc(C(F)F)nc5)nn4)CC3)cc1F)C2` [Example 1.26], the pIC50 was 8.41 on ATX in human whole blood and 8.39 on Human ATX.
Take `CC(=O)N1CCN(c2ccc(CNC(=O)C3(c4ccc(OCc5ccc(C(F)F)nc5)nn4)CC3)cn2)CC1` [Example 1.27]: at ATX in human whole blood, the pIC50 is 7.92.
Regarding `CC(=O)N1CCC2(CC1)CN(c1ccc(CNC(=O)C3(c4ccc(OCc5ccc(C(F)(F)F)nc5)nn4)CC3)nc1)C2` [Example 1.28], the pIC50 against ATX in human whole blood is 8.19; at Human ATX it was 8.49.
For the compound `CC(=O)N1CCC2(CC1)CN(c1ccc(CNC(=O)C3(c4ccc(OCc5ccc(C(F)F)nc5)nn4)CC3)nc1)C2` [Example 1.29], the figures for the pIC50 against ATX in human whole blood and on Human ATX were 8.29 and 8.28, respectively.
On to `CC(=O)N1CCC2(CC1)CN(c1ccc(CNC(=O)C3(c4ccc(OCc5ccc(C(F)(F)F)nc5)nn4)CC3)cn1)C2` [Example 1.30], for which the pIC50 against ATX in human whole blood was 7.81; on Human ATX it was 8.47.
On the same counts, the results for `CC(=O)N1CCC(c2ccc(CNC(=O)C3(c4ccc(OCc5ccc(C(F)(F)F)nc5)nn4)CC3)cc2)CC1` [Example 1.31] are 7.97 and 8.47.
Turning to `CCc1nc2c(C)cc(N3CCN(CC(=O)N4CC(O)C4)CC3)cn2c1N(C)c1nc(-c2ccc(F)cc2)c(C#N)s1` [Example 2 in WO2014/139882, reference compound], in the experiment with plasma LPA, the “LPA reduction at 8 h” value worked out at 58.1%.
